These compounds were tested against T1, LPA/S1P GPCR of interest (Homo sapiens, UniProt Q92633) (assay: Beta-Arrestin based assay (PathHunter)).
T1 construct: host or cells: CHO
Assay type: cell-based
Method: CMV promoter based DNA constructs expressing a fusion of the LPA/S1P GPCR of interest and ProLink™ tag were used to transfect EA Parental™ CHO cells (DiscoverX, Fremont, Calif.) using a FuGENE® transfection kit (Roche). Beta-Arrestin based assays were conducted 24-48 hrs post transfection using PathHunter® assay kits (DiscoverX, Fremont, Calif.). Agonist and antagonist assays were performed in quadruplicate in white 384 well plates. End point luminescence data were plotted and fit to a 4 parameter logistic function to obtain IC50 values. For antagonist assays, an IC80 concentration of agonist (LPA) equal to 0.5 micromolar was used.

T1 sequence (Q92633 whole entry): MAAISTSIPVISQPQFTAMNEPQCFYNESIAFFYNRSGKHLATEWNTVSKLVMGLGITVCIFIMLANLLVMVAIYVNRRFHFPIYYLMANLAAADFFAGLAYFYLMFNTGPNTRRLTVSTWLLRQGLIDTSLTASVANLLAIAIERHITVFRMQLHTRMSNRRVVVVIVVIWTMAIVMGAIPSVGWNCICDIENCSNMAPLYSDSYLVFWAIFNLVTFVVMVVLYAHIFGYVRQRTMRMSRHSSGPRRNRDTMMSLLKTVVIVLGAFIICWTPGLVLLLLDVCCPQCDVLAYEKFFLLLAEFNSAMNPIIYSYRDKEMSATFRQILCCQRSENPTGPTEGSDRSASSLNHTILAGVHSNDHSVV

Row | SMILES | EC50 [nM]
1 | Cc1nsc(-c2cc3sc(-c4ccc(CC(=O)O)cc4OC(F)(F)F)cc3s2)c1NC(=O)O[C@H](C)c1ccccc1 [IT384] | > 500
2 | C[C@@H](OC(=O)Nc1c(-c2ccc(-c3ncc(C(=O)O)s3)cc2)nnn1C)c1ccccc1 [IT209] | > 500
3 | COc1cc(-c2cc3sc(-c4cnn(C)c4NC(=O)O[C@H](C)c4ccccc4)cc3s2)ccc1CC(=O)O [IT221] | 50 to 500
4 | C[C@@H](OC(=O)Nc1c(-c2cc3sc(-c4ccc(C5(C(=O)O)CC5)c5ccccc45)cc3s2)cnn1C)c1ccccc1 [IT320] | > 500
5 | COc1cc(-c2cc3sc(-c4snc(C)c4NC(=O)O[C@H](C)c4ccccc4)cc3s2)ccc1C1(C(=O)O)CC1 [IT331] | 50 to 500
6 | Cc1nsc(-c2cc3sc(-c4ccc(C5(C(=O)O)CC5)cc4F)cc3s2)c1NC(=O)O[C@H](C)c1ccccc1 [IT244] | < 50
7 | Cc1nsc(-c2ccc3c(c2)CCCc2cc(CC(=O)O)ccc2-3)c1NC(=O)O[C@H](C)c1ccccc1 [IT225] | 50 to 500
8 | Cc1noc(-c2ccc(-c3ccc(OC(C)C(=O)O)cc3)cc2)c1NC(=O)O[C@H](C)c1ccccc1 (single isomer, unassigned) [IT256] | < 50
9 | Cc1cc(-c2cc3sc(-c4snc(C)c4NC(=O)O[C@H](C)c4ccccc4)cc3s2)ccc1C1(C(=O)O)CC1 [IT325] | 50 to 500
10 | Cc1nsc(-c2cc3sc(-c4ccc5c(CC(=O)O)coc5c4)cc3s2)c1NC(=O)O[C@H](C)c1ccccc1 [IT290] | > 500
11 | C[C@@H](OC(=O)Nc1c(-c2cc3sc(-c4ccc(-c5nnc(C6(C(=O)O)CC6)s5)cc4)cc3s2)nnn1C)c1ccccc1 [IT288] | 50 to 500
12 | COc1cc(-c2cc3sc(-c4nnn(C)c4NC(=O)O[C@H](C)c4ccccc4)cc3s2)ccc1CC(=O)O [IT220] | 50 to 500
13 | Cc1noc(-c2ccc(-c3ccc(Oc4ccc(C(=O)O)cc4)cc3)cc2)c1NC(=O)O[C@H](C)c1ccccc1 [IT368] | > 500
14 | COc1cc(CC(=O)O)c(F)cc1-c1cc2sc(-c3cnn(C)c3NC(=O)O[C@H](C)c3ccccc3)cc2s1 [IT410] | > 500
15 | Cc1cc(-c2cc3sc(-c4nnn(C)c4NC(=O)O[C@H](C)c4ccccc4)cc3s2)ccc1CC(=O)O [IT250] | 50 to 500
16 | C[C@@H](OC(=O)Nc1c(-c2cc3sc(-c4ccc5[nH]c(C6(C(=O)O)CC6)nc5c4)cc3s2)nnn1C)c1ccccc1 [IT422] | > 500
17 | C[C@@H](OC(=O)Nc1c(-c2cc3sc(-c4ccc(CC(=O)O)c5ccccc45)cc3s2)nnn1C)c1ccccc1 [IT318] | > 500
18 | Cc1nsc(-c2cc3sc(-c4ccc(-c5nnc(C6(C(=O)O)CC6)s5)cc4)cc3s2)c1NC(=O)O[C@H](C)c1ccccc1 [IT289] | > 500
19 | Cc1nsc(-c2ccc(-c3cnc(C4(C(=O)O)CC4)s3)cc2)c1NC(=O)O[C@H](C)c1ccccc1 [IT202] | 50 to 500
20 | Cc1cc(CC(=O)O)c(F)cc1-c1cc2sc(-c3nnn(C)c3NC(=O)O[C@H](C)c3ccccc3)cc2s1 [IT253] | 50 to 500
21 | C[C@@H](OC(=O)Nc1c(-c2cc3sc(-c4ccc(-c5nnc(C6(C(=O)O)CC6)o5)cc4)cc3s2)nnn1C)c1ccccc1 [IT218] | > 500
22 | C[C@@H](OC(=O)Nc1c(-c2ccc(-c3ccc(OC(C)(C)C(=O)O)c(F)c3)cc2)oc2ccccc12)c1ccccc1 [IT504] | 50 to 500
23 | Cc1cc(-c2cc3sc(-c4nnn(C)c4NC(=O)O[C@H](C)c4ccccc4)cc3s2)c(F)cc1CC(=O)O [IT242] | > 500

Row | SMILES | EC50 [nM]
24 | Cc1nsc(-c2cc3sc(-c4ccc5scc(C6(C(=O)O)CC6)c5c4)cc3s2)c1NC(=O)O[C@H](C)c1ccccc1 [IT373] | > 500
25 | C[C@@H](OC(=O)Nc1c(-c2ccc(-c3ccc(C(=O)O)s3)cc2)nnn1C)c1ccccc1 [IT203] | > 500
26 | C[C@@H](OC(=O)Nc1c(-c2cc3sc(-c4ccc(CC(=O)O)cc4OC(F)(F)F)cc3s2)cnn1C)c1ccccc1 [IT383] | > 500
27 | Cc1nsc(-c2cc3sc(-c4ccc5[nH]cc(CC(=O)O)c5c4)cc3s2)c1NC(=O)O[C@H](C)c1ccccc1 [IT283] | > 500
28 | C[C@@H](OC(=O)Nc1c(-c2ccc(-c3cnc(C4(C(=O)O)CC4)s3)cc2)nnn1C)c1ccccc1 [IT278] | 50 to 500
29 | Cc1nsc(-c2ccc(-c3nnc(C4(C(=O)O)CC4)o3)cc2)c1NC(=O)O[C@H](C)c1ccccc1 [IT176] | > 500
30 | Cc1nsc(-c2ccc(-c3ccc(C(=O)O)s3)cc2)c1NC(=O)O[C@H](C)c1ccccc1 [IT144] | > 500
31 | C[C@@H](OC(=O)Nc1c(-c2ccc(C#CC(=O)Nc3ccccc3C(=O)O)cc2)cnn1C)c1ccccc1 [IT430] | > 500
32 | Cc1noc(-c2ccc(-c3ccc(OC(C)C(=O)O)cc3)cc2)c1NC(=O)O[C@H](C)c1ccccc1 (single isomer, unassigned) [IT238] | 50 to 500
33 | C[C@@H](OC(=O)Nc1c(-c2cc3sc(-c4ccc(C5(C(=O)O)CC5)c(S(C)(=O)=O)c4)cc3s2)cnn1C)c1ccccc1 [IT441] | > 500
34 | COc1cc(-c2cc3sc(-c4cnn(C)c4NC(=O)O[C@H](C)c4ccccc4)cc3s2)cnc1C1(C(=O)O)CC1 [IT275] | 50 to 500
35 | COc1cc(-c2cc3sc(-c4cnn(C)c4NC(=O)O[C@H](C)c4ccccc4)cc3s2)c(OC)cc1CC(=O)O [IT349] | > 500
36 | C[C@@H](OC(=O)Nc1c(-c2ccc(-c3ccc(OC(C)(C)C(=O)O)cc3)cc2)oc2ccccc12)c1ccccc1 [IT508] | 50 to 500
37 | C[C@@H](OC(=O)Nc1c(-c2cc3sc(-c4ccc(CC(=O)O)c(F)c4F)cc3s2)cnn1C)c1ccccc1 [IT211] | 50 to 500
38 | Cc1nsc(-c2cc3sc(-c4ccc(CC(=O)O)c(F)c4)cc3s2)c1NC(=O)O[C@H](C)c1ccccc1 [IT294] | 50 to 500
39 | C[C@@H](OC(=O)Nc1c(-c2ccc(-c3nnc(C4(C(=O)O)CC4)o3)cc2)nnn1C)c1ccccc1 [IT175] | > 500
40 | C[C@@H](OC(=O)Nc1c(-c2cc3sc(-c4ccc5occ(C6(C(=O)O)CC6)c5c4)cc3s2)cnn1C)c1ccccc1 [IT334] | > 500
41 | Cc1nsc(-c2cc3sc(-c4ccc5occ(C6(C(=O)O)CC6)c5c4)cc3s2)c1NC(=O)O[C@H](C)c1ccccc1 [IT352] | > 500
42 | Cc1nsc(-c2cc3sc(-c4ccc(C5(C(=O)O)CC5)c5ccccc45)cc3s2)c1NC(=O)O[C@H](C)c1ccccc1 [IT322] | > 500
43 | Cc1nsc(-c2cc3sc(-c4cc(Cl)c(CC(=O)O)cc4F)cc3s2)c1NC(=O)O[C@H](C)c1ccccc1 [IT205] | > 500
44 | C[C@@H](OC(=O)Nc1c(-c2ccc(C#CC(=O)Nc3ccc(C(=O)O)cc3)cc2)cnn1C)c1ccccc1 [IT431] | > 500
45 | Cc1cc(-c2cc3sc(-c4cnn(C)c4NC(=O)O[C@H](C)c4ccccc4)cc3s2)ccc1C1(C(=O)O)CC1 [IT323] | 50 to 500
46 | Cc1cc(-c2cc3sc(-c4nnn(C)c4NC(=O)O[C@H](C)c4ccccc4)cc3s2)c(F)cc1C1(C(=O)O)CC1 [IT340] | 50 to 500

Row | SMILES | EC50 [nM]
47 | C[C@@H](OC(=O)Nc1c(-c2cc3sc(-c4cnc(C5(C(=O)O)CC5)c(F)c4)cc3s2)cnn1C)c1ccccc1 [IT392] | 50 to 500
48 | C[C@@H](OC(=O)Nc1c(-c2cc3sc(-c4ccc5c(CC(=O)O)c[nH]c5c4)cc3s2)nnn1C)c1ccccc1 [IT378] | > 500
49 | Cc1nsc(-c2cc3sc(-c4ccc(C5(C(=O)O)CC5)c(C(F)(F)F)c4)cc3s2)c1NC(=O)O[C@H](C)c1ccccc1 [IT381] | 50 to 500
50 | C[C@@H](NC(=O)C#Cc1ccc(-c2cnn(C)c2NC(=O)O[C@H](C)c2ccccc2)cc1)C(=O)O [IT399] | > 500
51 | C[C@@H](OC(=O)Nc1c(-c2cc3sc(-c4ccc(C5(C(=O)O)CC5)s4)cc3s2)cnn1C)c1ccccc1 [IT272] | 50 to 500
52 | COc1cc(-c2cc3sc(-c4nnn(C)c4NC(=O)O[C@H](C)c4ccccc4)cc3s2)ccc1C1(C(=O)O)CC1 [IT330] | 50 to 500
53 | C[C@@H](OC(=O)Nc1c(-c2cc3sc(-c4ccc5scc(C6(C(=O)O)CC6)c5c4)cc3s2)cnn1C)c1ccccc1 [IT370] | > 500
54 | Cc1cc(-c2cc3sc(-c4snc(C)c4NC(=O)O[C@H](C)c4ccccc4)cc3s2)c(F)cc1CC(=O)O [IT241] | > 500
55 | C[C@@H](OC(=O)Nc1c(-c2cc3sc(-c4ccc(C5(C(=O)O)CC5)cc4OC(F)(F)F)cc3s2)cnn1C)c1ccccc1 [IT385] | 50 to 500
56 | C[C@@H](OC(=O)Nc1c(-c2cc3sc(-c4ccc(CC(=O)O)c(C(F)(F)F)c4)cc3s2)cnn1C)c1ccccc1 [IT222] | 50 to 500
57 | COc1cc(CC(=O)O)ccc1-c1cc2sc(-c3snc(C)c3NC(=O)O[C@H](C)c3ccccc3)cc2s1 [IT163] | > 500
58 | COc1cc(C2(C(=O)O)CC2)c(F)cc1-c1cc2sc(-c3cnn(C)c3NC(=O)O[C@H](C)c3ccccc3)cc2s1 [IT411] | 50 to 500
59 | Cc1cc(-c2cc3sc(-c4cnn(C)c4NC(=O)O[C@H](C)c4ccccc4)cc3s2)ccc1CC(=O)O [IT254] | 50 to 500
60 | C[C@@H](OC(=O)Nc1c(-c2cc3sc(-c4ccc(CC(=O)O)cc4OC(F)(F)F)cc3s2)nnn1C)c1ccccc1 [IT416] | > 500
61 | Cc1noc(-c2ccc(-c3ccc(Oc4ccc(C(=O)O)o4)cc3)cc2)c1NC(=O)O[C@H](C)c1ccccc1 [IT388] | 50 to 500
62 | C[C@@H](OC(=O)Nc1c(-c2cc3sc(-c4ccc(-c5nnc(C6(C(=O)O)CC6)s5)cc4)cc3s2)cnn1C)c1ccccc1 [IT287] | > 500
63 | C[C@@H](OC(=O)Nc1c(-c2cc3sc(-c4ccc5c(C6(C(=O)O)CC6)coc5c4)cc3s2)nnn1C)c1ccccc1 [IT396] | 50 to 500
64 | C[C@@H](OC(=O)Nc1c(-c2ccc(C#CC(=O)O)cc2)cnn1C)c1ccccc1 [IT371] | > 500
65 | Cc1nsc(-c2cc3sc(-c4ccc(C5(C(=O)O)CC5)nc4)cc3s2)c1NC(=O)O[C@H](C)c1ccccc1 [IT271] | 50 to 500
66 | C[C@@H](OC(=O)Nc1c(-c2ccc(C#CC(=O)N(C)CCC(=O)O)cc2)cnn1C)c1ccccc1 [IT466] | > 500
67 | Cc1nsc(-c2ccc(-c3ncc(C4(C(=O)O)CC4)s3)cc2)c1NC(=O)O[C@H](C)c1ccccc1 [IT210] | > 500

Reference: US20140213538A1, “LYSOPHOSPHATIDIC ACID RECEPTOR ANTAGONISTS” (InterMune, Inc., priority 2013, published 2014)
